System: TCRs from the BAL of COVID-19 patients
Format: cell-based, human

In the case of “LLLLDRLNQLESKMSGKGQQQQ (SARS-CoV-2 epitope) [N221-242]”, the “recognition of the peptide, effect of the mutation (NFAT activation)” value is reported as “unaffected”.

— patent US20220033460A1, “IDENTIFICATION AND USE OF T CELL EPITOPES IN DESIGNING DIAGNOSTIC AND THERAPEUTIC APPROACHES FOR COVID-19” (priority 2020, published 2022)
